Source: patent publication US20210353564A1, “TREATMENTS FOR ZIKA VIRUS INFECTION” (Saint Louis University, priority 2018, published 2021)
Counter-ions that a name gives are not always drawn.

Columns and labels:
HCV = settings: cited from earlier work
Zika virus = assay: Focus Forming Assay, Vero cells drugged at T-1, T0, T1, T8, T12 relative to addition of virus; type: cell-based; settings: for change of EC50 with time of compound addition: addition T-1 to T12 relative to virus; for effect on Zika virus replication (focus count): remaining virus after 39 hours
Experimental: FIGS. 3-14. Focus Forming Assay. Data represent Vero cells drugged with SERM compounds an hour before addition of virus (T-1), upon addition of virus (T0), one hour after addition of virus (T1), eight hours after addition of virus (T8), and twelve hours after addition of virus. Each compound was screened as triplicate measurements and performed in duplicate. The data is shown as focus count (normalized to the control wells) which represents the amount of remaining virus after 39 hours as a function of log concentration.

[1] = average 4-year follow-up; difference not statistically significant; cited from earlier work
ZIKV strain PRVABC59 = assay: focus reduction test of ZIKV on Vero cells; settings: focus reduction test (FIG. 1B)
Excerpt: Average+/−StdDev from three independent experiments done in duplicate.

[2] = after two years, only tamoxifen; cited from earlier work
calmodulin-activated PDE = settings: cited from earlier work
[3] = system: Ca2+-mediated cytotoxicity and apoptosis; settings: cited from earlier work
ERa = target: T1, ERa (Homo sapiens, UniProt P03372); settings: cited from earlier work
T1 sequence (P03372 1-595): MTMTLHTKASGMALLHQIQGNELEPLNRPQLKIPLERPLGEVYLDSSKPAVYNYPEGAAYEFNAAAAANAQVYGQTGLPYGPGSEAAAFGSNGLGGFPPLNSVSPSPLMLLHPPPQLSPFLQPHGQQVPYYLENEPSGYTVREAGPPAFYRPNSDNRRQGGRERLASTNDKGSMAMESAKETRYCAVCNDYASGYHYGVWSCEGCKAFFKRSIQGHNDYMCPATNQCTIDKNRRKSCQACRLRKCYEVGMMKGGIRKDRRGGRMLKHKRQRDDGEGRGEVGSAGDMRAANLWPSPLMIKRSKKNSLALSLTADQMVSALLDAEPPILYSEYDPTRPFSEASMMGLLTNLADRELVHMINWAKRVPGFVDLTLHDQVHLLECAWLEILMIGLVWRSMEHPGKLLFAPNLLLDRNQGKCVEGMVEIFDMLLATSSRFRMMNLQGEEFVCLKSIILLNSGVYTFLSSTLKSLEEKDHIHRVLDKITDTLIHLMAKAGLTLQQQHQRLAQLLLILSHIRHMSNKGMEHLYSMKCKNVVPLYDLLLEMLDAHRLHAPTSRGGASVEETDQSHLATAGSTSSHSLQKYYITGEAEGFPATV

[4] = system: ERa-mediated gene transcription; settings: cited from earlier work

In the case of `C[C@]12CC[C@@H]3c4ccc(O)cc4C[C@@H](CCCCCCCCC[S+]([O-])CCCC(F)(F)C(F)(F)F)[C@H]3[C@@H]1CC[C@@H]2O` (stereo partly drawn) [ICI182780], the “effect on HCV genome replication” value (HCV) is given as “able to inhibit HCV genome replication” and the “toxicity in the HCV replication study” value (HCV) is given as “without any apparent toxicity”.
With `CCCCCCCCCCCCCC(=O)O[C@@H]1[C@@H](C)[C@@]2(O)[C@@H](C=C(CO)C[C@]3(O)C(=O)C(C)=C[C@@H]23)[C@@H]2C(C)(C)[C@]12OC(C)=O` [PMA, phorbol-12-myristate-13-acetate] the “change of EC50 with time of compound addition” value (“change of EC50” for short) (Zika virus) was “EC50 increases from T8 to T12” and the “effect on Zika virus replication (focus count)” value (“effect on Zika virus replication” for short) (Zika virus) was “diminishes viral replication”.
For `O=C(c1ccc(OCCN2CCCCC2)cc1)c1c(-c2ccc(O)cc2)sc2cc(O)ccc12` [raloxifene], the “fewer blood clots than in women taking tamoxifen” value [1] is given as 29% and the “fewer uterine cancers than in women taking tamoxifen” value [1] is given as 36%.
For `COc1cc2c(cc1OC)CN(CCc1ccc(NC(=O)c3cc(OC)c(OC)cc3NC(=O)c3cnc4ccccc4c3)cc1)CC2` [Tariquidar], the “change of EC50” value (Zika virus) was “EC50 does not change substantially from T-1 to T12” and the “effect on Zika virus replication” value (Zika virus) was “prevents viral replication”.
In the case of `CC/C(=C(\c1ccccc1)c1ccc(OCCN(C)C)cc1)c1ccccc1` [TAM, Tamoxifen], the “effect on HCV genome replication” value (HCV) is given as “able to inhibit HCV genome replication”, the “toxicity in the HCV replication study” value (HCV) is given as “without any apparent toxicity” and the “antiviral activity against ZIKV grown in Vero cells” value (ZIKV strain PRVABC59) is given as “antiviral activity”. For the same molecule, the “women with a recurrence” value [2] was 7.5%.
In the case of `C[C@H]1CCCC(=O)CCCCCc2cc(O)cc(O)c2C(=O)O1` [Zearalanone], the “effect on Zika virus replication” value (Zika virus) is reported as “no effect”.
For `O=c1c(-c2ccc(O)cc2)coc2cc(O)ccc12` [Daidzein], the “effect on Zika virus replication” value (Zika virus) was “no effect”.
In the case of `CC/C(=C(\c1ccccc1)c1ccc(OCCN(C)C)cc1)c1ccccc1` [Tamoxifen citrate], the “change of EC50” value (Zika virus) is reported as “EC50 increases from T1 to T8” and the “effect on Zika virus replication” value (Zika virus) is reported as “prevents viral replication”.
For `Oc1ccc([C@H]2COc3cc(O)ccc3C2)cc1` [(S)-Equol, (S)-equol], the “change of EC50” value (Zika virus) was “EC50 increases from T8 to T12” and the “effect on Zika virus replication” value (Zika virus) was “diminishes viral replication”.
In the case of `Cl.NCCCCCCCCCCNS(=O)(=O)c1cccc2c(Cl)cccc12` [A-7], the IC50 (calmodulin-activated PDE) is listed as 3 µM, the “change of EC50” value (Zika virus) is listed as “EC50 increases from T1 to T8” and the “effect on Zika virus replication” value (Zika virus) is listed as “prevents viral replication”. The “effect on Zika virus replication” value (Zika virus; listed as A-7 Hydrochloride) was “impedes viral replication”.
In the case of “VAITVLVK [CALP-1, cell-permeable calmodulin (CaM) peptide agonist]”, the IC50 [3] is listed as 52 µM and the “effect on Zika virus replication” value (Zika virus) is listed as “increase viral growth during some of the assays”.
For `O=c1c(-c2ccc(O)cc2)coc2cc(O)cc(O)c12` [Genistein], the “effect on Zika virus replication” value (Zika virus) was “no effect”.
For Methylpiperidinopyrazole [MPP], the “selectivity for ERa over ERβ” value (ERa) is listed as 200 fold and the “selectivity for blocking ERa-mediated gene transcription relative to that of ERβ” value [4] is listed as 1000 fold.
